Consider two compounds from ChEMBL document CHEMBL1137319, “Thyroid receptor ligands. 6. A high affinity "direct antagonist" selective for the thyroid hormone receptor” (J Med Chem, 2006).

Assay [1] has as its target T1, Thyroid hormone receptor beta (Homo sapiens, UniProt P10828).
T1 sequence (P10828 whole entry): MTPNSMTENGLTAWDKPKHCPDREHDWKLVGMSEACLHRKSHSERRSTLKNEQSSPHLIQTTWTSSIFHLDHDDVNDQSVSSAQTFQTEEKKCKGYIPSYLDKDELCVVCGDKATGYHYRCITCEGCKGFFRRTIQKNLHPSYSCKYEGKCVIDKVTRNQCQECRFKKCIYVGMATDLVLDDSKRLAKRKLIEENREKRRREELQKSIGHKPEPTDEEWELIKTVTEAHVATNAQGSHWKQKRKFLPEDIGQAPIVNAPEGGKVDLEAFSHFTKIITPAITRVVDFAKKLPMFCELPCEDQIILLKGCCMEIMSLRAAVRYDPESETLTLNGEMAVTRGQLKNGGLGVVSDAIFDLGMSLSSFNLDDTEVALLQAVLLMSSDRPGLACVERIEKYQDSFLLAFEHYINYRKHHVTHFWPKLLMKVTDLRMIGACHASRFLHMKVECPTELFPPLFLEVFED
Kind of assay: Activity at human TR-beta-1 transfected in CHO K1 cells by alkaline phosphatase reporter gene assay.

The test system of assay [2] is Rattus norvegicus. As to the kind of experiment: Decrease in heart rate in orally dosed cholesterol-fed Sprague-Dawley rat relative to control. Type of assay: functional. Further details: scale not given: the % may be the effect or the level left.
For assay [3], the system named is Rattus norvegicus. As to the kind of experiment: Increase in LDL cholesterol level in orally dosed cholesterol-fed Sprague-Dawley rat relative to control. Type of assay: functional.
Assay [4] addresses T2, Thyroid hormone receptor alpha (Homo sapiens, UniProt P10827).
T2 sequence (P10827 whole entry): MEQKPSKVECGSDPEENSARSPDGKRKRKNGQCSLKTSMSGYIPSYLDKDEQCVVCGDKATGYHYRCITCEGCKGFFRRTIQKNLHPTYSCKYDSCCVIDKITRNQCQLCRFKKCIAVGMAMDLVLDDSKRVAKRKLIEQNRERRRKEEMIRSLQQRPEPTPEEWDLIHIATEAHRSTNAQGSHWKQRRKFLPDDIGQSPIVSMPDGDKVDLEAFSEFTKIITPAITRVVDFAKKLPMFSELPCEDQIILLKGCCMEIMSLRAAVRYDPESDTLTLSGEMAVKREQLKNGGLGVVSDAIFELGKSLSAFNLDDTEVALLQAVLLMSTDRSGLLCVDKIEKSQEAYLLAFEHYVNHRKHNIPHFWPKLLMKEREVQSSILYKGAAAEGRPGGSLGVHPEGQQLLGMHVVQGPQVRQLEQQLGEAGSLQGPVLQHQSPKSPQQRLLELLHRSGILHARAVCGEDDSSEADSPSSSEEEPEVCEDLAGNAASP
Kind of assay: Binding affinity to human TRalpha1.

Assay [5] has as its target T2, Thyroid hormone receptor alpha. Kind of assay: Activity at human TR-alpha-1 transfected in CHO K1 cells by alkaline phosphatase reporter gene assay.
In assay [6] the target is T1, Thyroid hormone receptor beta. Kind of assay: Binding affinity to human TRbeta1.

As for `CC(C)c1cc(Oc2c(Br)cc(CCC(=O)O)cc2Br)cc(/C=C/c2ccncc2)c1O`, the IC50 – broadly, the midpoint of a concentration-inhibition curve – in assay [1] is 32 nM; in assay [4], 36 nM; in assay [5], 32 nM; in assay [6] it was 22 nM. For the same compound, the results for the Activity in assay [2] and in assay [3] were -10% and 13%, respectively.

Turning to `O=C(O)CCc1ccccc1OCC1C(Br)CCCC1Br` (stereo not drawn), the results for the concentration for half-maximal inhibition (IC50) in assay [4] and in assay [6] were 460 nM and 190 nM, respectively.
